Here are results for one compound from PMC6149971, “In Vivo and In Vitro Activities and ADME-Tox Profile of a Quinolizidine-Modified 4-Aminoquinoline: A Potent Anti-P. falciparum and Anti-P. vivax Blood-Stage Antimalarial” (Molecules : A Journal of Synthetic Chemistry and Natural …, 2017).

One series concerns the target T1, CYP1A2 (Homo sapiens, UniProt P05177).
T1 sequence (P05177 1-516): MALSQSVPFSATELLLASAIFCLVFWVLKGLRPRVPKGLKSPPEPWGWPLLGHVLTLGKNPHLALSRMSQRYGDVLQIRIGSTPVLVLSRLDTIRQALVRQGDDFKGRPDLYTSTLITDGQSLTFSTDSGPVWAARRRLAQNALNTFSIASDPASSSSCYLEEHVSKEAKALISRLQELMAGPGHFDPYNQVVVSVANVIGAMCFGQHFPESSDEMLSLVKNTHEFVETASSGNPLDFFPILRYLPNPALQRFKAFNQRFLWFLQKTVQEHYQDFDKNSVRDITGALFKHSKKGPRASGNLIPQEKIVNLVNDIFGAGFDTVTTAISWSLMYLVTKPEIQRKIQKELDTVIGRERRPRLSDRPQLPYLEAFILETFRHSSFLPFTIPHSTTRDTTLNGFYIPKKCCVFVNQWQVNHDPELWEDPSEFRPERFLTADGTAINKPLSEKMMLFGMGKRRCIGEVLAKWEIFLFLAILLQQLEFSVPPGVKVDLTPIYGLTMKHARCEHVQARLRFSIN
Put plainly: in vitro.

Series [1] in a line: Pharmacokinetics in CD-1 mice after oral administration. It is filed as in vivo, mouse. To be noted: male, CD-1, mouse, in vivo, po, 10 mg/kg. The method, then:
Samples from the pharmacokinetic studies were analyzed under the following conditions: UPLC interfaced with a Premiere XE triple Quadrupole, Waters. A gradient from 2 to 100% (Water, MeOH, 5 mM Ammonium Acetate) over 1.3 min was used in Acquity HSS T3 (dimensions 2.1 by 50 mm, 1.8 µm column, 40 °C temperature, flow rate 0.5 mL/min). Detection was performed in MRM (ESI positive, Q1/Q3 330.16/152.00, Cone Voltage 45 V; Extractor 5 V; Capillary 3.4 kV). The limit of detection was 1 ng/mL. Pharmacokinetic parameters were determined by Non-Compartmental Analysis, using the linear trapezoidal rule and uniform weight.
Pharmacokinetic data were collected in mice by testing the racemate and the enantiomers at the same single dose, and vehicle-utilized for in vivo studies (see composition in paragraph 4.4). Briefly, male CD-1 mice (Charles River Laboratories) weighing 18–22 g received single dose (10 mg/kg) oral administrations of the AM1 racemate and single enantiomers, each dissolved in SSV. For each experiment, twenty-four mice/dose and three mice/time-point were used. Blood samples were collected at eight selected time-points (15, 30 and 60 min; 2, 4, 6, 8 and 24 h) under ethyl ether anaesthesia. The heparinized tubes containing blood samples were immediately placed on ice and centrifuged, and the supernatant collected and frozen at −80 °C prior to analysis. Pharmacokinetic plasma samples (spiked with internal standard) were filtered (Sirocco filter plate, Waters) under vacuum, and 5 µL analysed by LC-MS/MS.

The subject of the next series is P. falciparum D10 (CQ-S). Description: Combination with dihydroartemisinin (isobologram), D10. It is filed as cell-based. Conditions: additive activity. On the procedure: Figure 2 Isobologram analysis of the antimalarial activity of (−)-AM1 in combination with dihydroartemisinin (DHA) against D10 chloroquine-sensitive (CQ-S) (A) or W2 chloroquine-resistant (CQ-R) (B) P. falciparum strains. […]. DHA fractional IC50 values were calculated by dividing the IC50 of DHA combined with (−)-AM1 or CQ, respectively, by the IC50 of DHA alone, and plotted on the horizontal axis. The corresponding fractional (−)-AM1 or CQ IC50 values were calculated by dividing each fixed concentration by the IC50 of the (−)-AM1 or CQ alone, and plotted on the vertical axis. An isobologram close to the diagonal indicates an additive effect.
The antimalarial activity of (−)-AM1 was assayed in combination with dihydroartemisinin (DHA) against W-2 (CQ-R) or D10 (CQ-S) strains of P. falciparum by potentiation tests as previously described. CQ was used as a control. Isobolograms were constructed by plotting a pair of fractional IC50 values for each combination of (−)-AM1 or CQ with DHA [40].
An isobologram close to the diagonal indicates an additive effect.

In general, inhibition refers to the drop in the measured response relative to a control, in per cent. Usually AUC(0-t) stands for exposure summed from dosing to a finite time, without extrapolation to infinity. In general, Cmax refers to the peak of the concentration-time curve. One may read the MRT last as the average time that molecules of a dose stay in the body. The Tmax is the time from dosing to the highest level.

SMILES strings stand for the structures. “And” between values parts separate entries of the source, which are not always exact repeats. Identical values can stand only once.

At CYP1A2, `Clc1ccc2c(NC[C@@H]3CCCN4CCCC[C@H]34)ccnc2c1` [(−)-AM1, 7-chloro-N-(((1S,9aR)-octahydro-1H-quinolizin-1-yl)methyl)quinolin-4-amine] gave an inhibition at 3 µM of less than 5%. In addition, in series [1], the area under the curve AUC(0-t) is 0.313 µM·h and 103 ng·h/mL; the Cmax was 84 nM and 27.6 ng/mL; the MRT last was 3.33 h; the Tmax was 0.25 h. In addition, the “FIC in combination with DHA” value with P. falciparum D10 (CQ-S) is less than 2.
